As usually defined, the pKi is the Ki on a negative log10 scale, so that one unit is a factor of ten. The pIC50 is the IC50 on a negative log10 scale, so that one unit is a factor of ten. A low value points to a high IC50.

The record followed here is patent US7101878B1 (Agouron Pharmaceuticals, Inc., priority 1998, dated 2006).

For one data set, the target named is Serotonin Transporter (Homo sapiens, UniProt P31645). Nature of the data set: Selectivity: Serotonin Transporter.
The next data set addresses H3 Histamine (Homo sapiens, UniProt Q9Y5N1). Put plainly: Selectivity: H3 Histamine.
The target of another data set is NK3 (Homo sapiens, UniProt P29371). Nature of the data set: biochemical.
Another data set concerns the target MAO-B (Homo sapiens, UniProt P27338). Nature of the data set: Selectivity: MAO-B.
For the next data set, the target named is CYP3A4 Cytochrome P450 (Homo sapiens, UniProt P08684).
The next data set has as its target LTB4 (Homo sapiens, UniProt Q15722). Nature of the data set: biochemical.
A further data set deals with Oxytocin (Homo sapiens, UniProt P30559). Put plainly: biochemical.
The target of the next data set is M2 Muscarinic (Homo sapiens, UniProt P08172). Nature of the data set: Selectivity: M2 Muscarinic.
The next data set concerns the target NK1 (Homo sapiens, UniProt P25103). Put plainly: biochemical.
The next data set addresses LTD4 (Homo sapiens, UniProt Q9Y271). Put plainly: biochemical.
The next data set deals with ET-A (Homo sapiens, UniProt P25101). Nature of the data set: biochemical.
In a further data set the target is PAF (Homo sapiens, UniProt P25105). Put plainly: biochemical.
The target of the next data set is RXRα Retinoid (Homo sapiens, UniProt P19793). Put plainly: biochemical.
In the next data set the target is RARγ Retinoid (Homo sapiens, UniProt P13631). Put plainly: biochemical.
A further data set has as its target H2 Histamine (Homo sapiens, UniProt P25021). Nature of the data set: Selectivity: H2 Histamine.
The next data set deals with N-type Ca2+ Channel (Homo sapiens, UniProt Q00975). Put plainly: Selectivity: N-type Ca2+ Channel.
Another data set has as its target TXA2 (Homo sapiens, UniProt P21731). Nature of the data set: biochemical.
The target of the next data set is Bradykinin 2 (Homo sapiens, UniProt P30411). Put plainly: biochemical.
Another data set concerns the target CCKA (Homo sapiens, UniProt P32238). Nature of the data set: biochemical.
Another data set has as its target H1 Histamine (Homo sapiens, UniProt P35367). Put plainly: Selectivity: H1 Histamine.
A further data set addresses NK2 (Homo sapiens, UniProt P21452). Nature of the data set: biochemical.
Data set [1] is described as follows: Intact male rat, testosterone suppression. Type of data set: in vivo. The settings on record: male, Sprague-Dawley, rat, plasma, intramuscular; 100 mg/kg im*, 7 days; read-out: Range of Plasma Conc. An excerpt: (§1) Testosterone is a hormone regulated by the hypothalamic-pituitary-gonadal axis. GnRH is secreted in pulses from the hypothalamus and stimulates the anterior pituitary gland to release gonadotropic hormones LH and FSH. Testosterone is produced when the testes are stimulated by LH. The quantity of testosterone secreted increases approximately in direct proportion to the amount of LH available (Guyton, 1986).
(§2) Male Sprague-Dawley (250-275 g) rats were single-housed and allowed to acclimate for 1 week prior to study. On study day animals were dosed with vehicle or test compound by various routes of administration, including ip, sc, or po. Blood samples were obtained via cardiac puncture under halothane anesthesia from individual animals at predetermined time points post treatment. Blood samples were drawn into heparin containing tubes. Blood was centrifuged immediately, plasma collected and stored in −20° freezer until assayed. Plasma samples were analyzed using DSL-4000 ACTIVE Testosterone coated-tube raduioimmunoassay kit from Diagnostic Systems Laboratories, Inc.
(§3) Male Sprague-Dawley (250-275 g) rats were single-housed and allowed to acclimate for 1 week prior to study. We developed a technique to allow for repeated sampling from the jugular vein by using microrenathane (MRE) catheters implanted 7 days prior to study. Details of the surgical procedure have been described previously {Harms and Ojeda, 1974}. On study day, animals were allowed to acclimate to the procedure room while residing in their home cage. Basal blood samples were drawn from all animals. Immediately following basal sampling, vehicle or test compounds were administered by various routes. The routes of administration employed were intravenous (iv), intramuscular (im), and oral (po). Blood samples were drawn into heparin containing tubes at multiple time points post treatment. Blood was centrifuged immediately, plasma collected and stored in −20° freezer until assayed. Plasma samples were analyzed using DSL-4000 ACTIVE Testosterone coated-tube raduioimmunoassay kit from Diagnostic Systems Laboratories, Inc.
(§4) Male Sprague-Dawley (250-275 g) rats were double-housed and allowed to acclimate for 1 week prior to study. Daily vehicle treatments were administered either, im, sc, or po between 8:00 and 9:00 am for seven days. On day 8 between 8:00 and 9:00 am, blood samples were drawn via cardiac puncture under halothane anesthesia. The procedure was complete in 45-60 seconds. Over the next 7 days one groups of animals continued to receive vehicle treatments while another group of animals received no treatment. Samples were collected as described above following the 7th day of this treatment regimen. Testosterone levels were not different between vehicle treated animals and untreated animals.
(§5) Daily im dosing of Compound 134 (100 mg/kg) or vehicle was performed between 8:00 and 9:00 am for seven days. Samples were collected as described above following the 7th day of treatment.
(§6) All blood samples were collected in heparin containing tubes. Blood was centrifuged immediately, plasma collected and stored in −20° freezer until assayed the next day. Plasma samples were analyzed using DSL-4000 ACTIVE Testosterone coated-tube raduioimmunoassay kit from Diagnostic Systems Laboratories, Inc.

The test system of data set [2] is testosterone levels in intact male rats. Put plainly: Intact male rat, testosterone suppression. Type of data set: in vivo.
Source text: as §1, §2, §3, §4, §5, §6

pIC50, pKi: −log10 of the molar value.

LTD4, sequence (Q9Y271 whole entry): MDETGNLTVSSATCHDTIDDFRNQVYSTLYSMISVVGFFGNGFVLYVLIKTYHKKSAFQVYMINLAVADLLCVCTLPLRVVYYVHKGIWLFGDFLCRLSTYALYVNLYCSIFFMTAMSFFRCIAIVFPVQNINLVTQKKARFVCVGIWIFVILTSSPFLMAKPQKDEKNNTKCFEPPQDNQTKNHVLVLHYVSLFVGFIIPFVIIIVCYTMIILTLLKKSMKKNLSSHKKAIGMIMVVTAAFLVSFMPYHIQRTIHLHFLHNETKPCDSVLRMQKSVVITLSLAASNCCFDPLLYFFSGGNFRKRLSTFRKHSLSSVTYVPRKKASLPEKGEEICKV
NK3, sequence (P29371 whole entry): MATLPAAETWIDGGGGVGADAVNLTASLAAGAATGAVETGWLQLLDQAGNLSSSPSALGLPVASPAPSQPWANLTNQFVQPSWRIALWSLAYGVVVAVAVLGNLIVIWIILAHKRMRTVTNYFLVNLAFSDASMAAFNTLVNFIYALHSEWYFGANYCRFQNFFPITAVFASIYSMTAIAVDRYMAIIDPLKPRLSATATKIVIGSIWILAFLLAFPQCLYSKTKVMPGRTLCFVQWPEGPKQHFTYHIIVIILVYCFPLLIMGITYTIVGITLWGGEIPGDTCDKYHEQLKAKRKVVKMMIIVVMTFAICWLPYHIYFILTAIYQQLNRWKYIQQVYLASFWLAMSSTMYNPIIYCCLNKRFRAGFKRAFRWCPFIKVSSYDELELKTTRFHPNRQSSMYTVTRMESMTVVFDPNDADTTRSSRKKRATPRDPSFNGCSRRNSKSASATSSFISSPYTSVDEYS
NK1, sequence (P25103 whole entry): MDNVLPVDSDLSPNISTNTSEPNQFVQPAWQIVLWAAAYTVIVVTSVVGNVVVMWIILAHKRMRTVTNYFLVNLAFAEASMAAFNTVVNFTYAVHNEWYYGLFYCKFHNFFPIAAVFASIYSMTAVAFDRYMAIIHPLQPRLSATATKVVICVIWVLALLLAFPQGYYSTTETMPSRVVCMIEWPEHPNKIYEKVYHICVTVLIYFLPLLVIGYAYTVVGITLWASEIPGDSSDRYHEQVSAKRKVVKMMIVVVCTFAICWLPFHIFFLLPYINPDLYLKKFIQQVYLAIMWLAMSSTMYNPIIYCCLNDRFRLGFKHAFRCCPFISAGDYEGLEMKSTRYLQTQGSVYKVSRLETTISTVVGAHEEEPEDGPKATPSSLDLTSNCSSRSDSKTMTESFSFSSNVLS
NK2, sequence (P21452 whole entry): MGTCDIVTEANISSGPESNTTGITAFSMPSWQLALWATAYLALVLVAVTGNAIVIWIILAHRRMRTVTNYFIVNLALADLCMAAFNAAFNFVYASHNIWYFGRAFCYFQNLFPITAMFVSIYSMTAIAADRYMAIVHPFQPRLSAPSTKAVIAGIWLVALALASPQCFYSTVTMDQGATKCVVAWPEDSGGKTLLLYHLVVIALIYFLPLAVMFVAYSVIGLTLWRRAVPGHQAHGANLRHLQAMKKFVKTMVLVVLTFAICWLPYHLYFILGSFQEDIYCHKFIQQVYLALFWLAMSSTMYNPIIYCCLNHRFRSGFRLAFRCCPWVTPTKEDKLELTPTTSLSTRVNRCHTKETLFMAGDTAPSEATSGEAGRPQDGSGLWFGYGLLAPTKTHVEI
TXA2, sequence (P21731 whole entry): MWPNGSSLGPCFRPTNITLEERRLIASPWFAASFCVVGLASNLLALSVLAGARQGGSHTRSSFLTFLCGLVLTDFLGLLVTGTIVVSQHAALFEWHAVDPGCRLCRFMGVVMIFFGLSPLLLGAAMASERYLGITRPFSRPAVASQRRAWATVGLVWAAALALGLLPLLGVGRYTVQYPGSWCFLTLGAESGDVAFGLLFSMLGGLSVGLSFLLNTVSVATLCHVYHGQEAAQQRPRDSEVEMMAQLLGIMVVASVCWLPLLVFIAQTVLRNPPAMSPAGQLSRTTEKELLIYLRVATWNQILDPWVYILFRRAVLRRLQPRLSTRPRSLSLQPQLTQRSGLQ
M2 Muscarinic, sequence (P08172 whole entry): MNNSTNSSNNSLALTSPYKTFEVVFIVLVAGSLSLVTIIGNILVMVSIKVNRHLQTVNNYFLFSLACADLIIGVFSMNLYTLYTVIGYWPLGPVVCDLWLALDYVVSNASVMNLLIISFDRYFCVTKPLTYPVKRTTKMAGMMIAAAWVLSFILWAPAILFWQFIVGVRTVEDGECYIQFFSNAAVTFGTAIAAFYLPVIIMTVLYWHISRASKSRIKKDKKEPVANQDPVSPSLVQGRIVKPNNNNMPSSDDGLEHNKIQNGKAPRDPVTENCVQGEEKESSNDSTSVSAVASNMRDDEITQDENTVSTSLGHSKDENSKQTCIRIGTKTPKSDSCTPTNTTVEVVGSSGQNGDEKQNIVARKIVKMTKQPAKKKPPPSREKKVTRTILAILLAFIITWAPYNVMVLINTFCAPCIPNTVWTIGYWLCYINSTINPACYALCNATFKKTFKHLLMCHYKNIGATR
Bradykinin 2, sequence (P30411 whole entry): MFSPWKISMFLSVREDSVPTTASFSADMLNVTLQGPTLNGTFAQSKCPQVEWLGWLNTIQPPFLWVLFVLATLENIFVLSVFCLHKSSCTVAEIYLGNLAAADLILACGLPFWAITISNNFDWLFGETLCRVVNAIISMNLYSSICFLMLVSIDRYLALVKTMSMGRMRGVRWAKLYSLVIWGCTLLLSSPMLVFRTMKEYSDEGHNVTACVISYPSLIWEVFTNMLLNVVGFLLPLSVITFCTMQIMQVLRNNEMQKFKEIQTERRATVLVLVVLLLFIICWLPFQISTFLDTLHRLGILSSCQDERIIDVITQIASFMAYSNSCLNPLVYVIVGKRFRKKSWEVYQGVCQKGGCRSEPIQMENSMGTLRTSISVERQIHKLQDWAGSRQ
RXRα Retinoid, sequence (P19793 whole entry): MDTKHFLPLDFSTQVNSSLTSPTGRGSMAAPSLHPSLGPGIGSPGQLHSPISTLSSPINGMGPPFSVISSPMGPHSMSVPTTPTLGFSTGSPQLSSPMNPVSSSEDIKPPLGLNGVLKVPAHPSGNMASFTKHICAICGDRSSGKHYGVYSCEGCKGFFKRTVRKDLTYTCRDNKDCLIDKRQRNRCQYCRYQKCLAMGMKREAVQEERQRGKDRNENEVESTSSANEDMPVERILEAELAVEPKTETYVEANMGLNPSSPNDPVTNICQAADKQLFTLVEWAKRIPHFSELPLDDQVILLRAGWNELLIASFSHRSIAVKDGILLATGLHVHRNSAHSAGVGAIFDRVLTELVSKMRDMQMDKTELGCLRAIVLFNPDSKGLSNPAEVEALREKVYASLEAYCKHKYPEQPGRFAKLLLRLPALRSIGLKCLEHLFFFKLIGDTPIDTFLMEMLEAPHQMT
H1 Histamine, sequence (P35367 whole entry): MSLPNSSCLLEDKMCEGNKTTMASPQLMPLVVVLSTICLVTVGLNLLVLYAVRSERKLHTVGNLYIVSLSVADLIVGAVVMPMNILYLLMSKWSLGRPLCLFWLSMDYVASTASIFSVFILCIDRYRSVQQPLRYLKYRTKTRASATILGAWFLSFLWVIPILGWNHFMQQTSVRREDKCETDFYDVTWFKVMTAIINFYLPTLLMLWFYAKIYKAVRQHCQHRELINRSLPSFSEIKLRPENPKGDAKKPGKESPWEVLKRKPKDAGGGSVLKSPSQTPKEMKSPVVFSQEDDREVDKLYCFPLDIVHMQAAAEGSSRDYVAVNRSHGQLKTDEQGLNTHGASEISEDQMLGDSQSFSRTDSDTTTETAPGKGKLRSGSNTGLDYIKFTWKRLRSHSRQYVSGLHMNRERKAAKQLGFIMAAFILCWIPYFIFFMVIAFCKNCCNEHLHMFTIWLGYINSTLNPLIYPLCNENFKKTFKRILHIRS
Oxytocin, sequence (P30559 whole entry): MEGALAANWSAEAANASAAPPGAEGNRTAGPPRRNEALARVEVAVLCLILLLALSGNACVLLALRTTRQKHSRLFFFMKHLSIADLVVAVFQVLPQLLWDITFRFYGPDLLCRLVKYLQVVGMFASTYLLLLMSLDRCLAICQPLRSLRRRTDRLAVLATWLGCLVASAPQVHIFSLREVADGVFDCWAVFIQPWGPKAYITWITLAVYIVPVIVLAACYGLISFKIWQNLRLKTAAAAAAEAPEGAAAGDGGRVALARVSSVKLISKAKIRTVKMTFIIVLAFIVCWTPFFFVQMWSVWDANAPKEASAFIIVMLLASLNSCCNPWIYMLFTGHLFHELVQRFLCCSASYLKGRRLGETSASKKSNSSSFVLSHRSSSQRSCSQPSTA
CYP3A4 Cytochrome P450, sequence (P08684 whole entry): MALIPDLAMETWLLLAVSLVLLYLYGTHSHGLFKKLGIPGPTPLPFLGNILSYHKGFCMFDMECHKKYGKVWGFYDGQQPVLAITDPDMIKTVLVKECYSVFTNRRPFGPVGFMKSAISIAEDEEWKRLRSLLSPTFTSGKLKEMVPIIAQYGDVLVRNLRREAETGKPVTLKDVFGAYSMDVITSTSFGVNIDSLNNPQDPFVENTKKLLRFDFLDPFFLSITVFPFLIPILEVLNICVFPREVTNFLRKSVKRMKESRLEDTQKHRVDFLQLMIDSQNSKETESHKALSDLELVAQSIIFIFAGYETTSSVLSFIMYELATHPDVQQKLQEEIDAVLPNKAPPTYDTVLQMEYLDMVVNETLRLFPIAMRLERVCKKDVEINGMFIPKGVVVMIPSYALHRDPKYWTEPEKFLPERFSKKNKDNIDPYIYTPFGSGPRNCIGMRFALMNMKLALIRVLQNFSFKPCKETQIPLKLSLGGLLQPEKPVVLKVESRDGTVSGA

`COc1cccc(OC)c1NC(=O)c1ccc(Cc2cc3c(cc2C)C(C)(C)CCC3(C)C)o1` [Compound 20]: the pKi was less than 6.00 on Serotonin Transporter; less than 6.00 on H3 Histamine; 5.30 to 6.00 at NK3; less than 6.00 at MAO-B; less than 6.00 on LTB4; less than 6.00 on Oxytocin. The pKi was less than 6.00 on M2 Muscarinic; less than 6.00 at NK1; less than 6.00 at LTD4; less than 6.00 at ET-A; 5.30 to 5.52 on PAF; less than 5.00 at RXRα Retinoid. The pKi was less than 5.00 on RARγ Retinoid; approximately 6.00 on H2 Histamine; less than 6.00 on N-type Ca2+ Channel; less than 6.00 at TXA2; less than 6.00 on Bradykinin 2; less than 6.00 on CCKA. Further, the pKi on H1 Histamine and on NK2 was less than 6.00 throughout. Also, the pIC50 against CYP3A4 Cytochrome P450 is 5.77.
Take `COc1cc(OC)c(NC(=O)c2ccc(Cc3cc4c(cc3C)C(C)(C)CCC4(C)C)o2)c(OC)c1` [Compound 134]: the concentration at 7 days in data set [1] was 1300 nM. Also, the “% Testosterone suppression” value stood at 36% in [2] (20 mg/kg ip); 75% in data set [2] (50 mg/kg po); 80% in [2] (100 mg/kg im*, 7 days); 80% in data set [2] (100 mg/kg po); 60% in data set [2] (100 mg/kg sc). Further, the “Range of Plasma Conc.” value in data set [2] (20 mg/kg ip) was 0.2 µM; in data set [2] (20 mg/kg po, @ 1 hr) it was 1.1 @ 1 hr μM; in data set [2] (20 mg/kg po, @ 2 hr) it was 0.15 @ 2 hr μM; in data set [2] (20 mg/kg po, @ 4 hr), 0.17 @ 4 hr μM; in [2] (100 mg/kg sc), 0.13 µM. Moreover, the “Suppression Duration” value is 4 h in data set [2] (20 mg/kg ip); 8 h in data set [2] (50 mg/kg po); 12 h in data set [2] (100 mg/kg im*, 7 days); 12 h in data set [2] (100 mg/kg po); 24 h in data set [2] (100 mg/kg sc). Besides, the “time of % Testosterone suppression” value came to 4 h in [2] (20 mg/kg ip); 4 h in [2] (50 mg/kg po); 12 h in data set [2] (100 mg/kg im*, 7 days); 6 h in data set [2] (100 mg/kg po); 24 h in [2] (100 mg/kg sc). For the same compound, the testosterone levels result in data set [2] (7 days of repeated treatment, 100 mg/kg im daily, p<0.05) is “significantly suppressed testosterone levels”; in data set [2] (oral gavage, highest dose, 12 hour time course and 24 hour time point), “suppressed testosterone throughout the course of the study”.
Regarding `Cc1cc2c(cc1Cc1ccc(C(=O)NCc3cccc(CNc4ccnc(NC[C@@H]5CCCO5)n4)c3)o1)C(C)(C)CCC2(C)C` [Compound 136], in [2] (20 mg/kg ip), the “% Testosterone suppression” value is 72%, the “Range of Plasma Conc.” value was determined as 0.4 µM, the “Suppression Duration” value was found to be 6 h and the “time of % Testosterone suppression” value was determined as 6 h. Besides, in data set [2] (40 mg/kg po), the “% Testosterone suppression” value amounted to 46%, the “Range of Plasma Conc.” value was 0.34 µM, the “Suppression Duration” value came to 4 h and the “time of % Testosterone suppression” value was 4 h. In data set [2] (6 hours post ip injection, vs vehicle, p<0.05), the testosterone levels entry is “suppressed testosterone levels”.
